Test results from US20170368082A1, “FORMULATIONS OF BRINCIDOFOVIR” (priority 2016, published 2017).
Like-named read-outs stand apart in the source and are kept apart here.

Experiments:
[1] = Comparison of toxicity of orally and intravenously administered brincidofovir (rat intestine); type: in vivo; conditions: for AUC / Cmax: rat, in vivo; for AUC: read-out: Exposure AUC; for Cmax: read-out: Exposure Cmax
Excerpt: As shown in the figures, IV administration of brincidofovir is more well-tolerated in the intestine.

[2] = Drug product vial and stopper compatibility; type: physicochemical
Procedure: Formulations of the disclosure were evaluated for […]. The testing formulation (5 mL, 10 mg/mL brincidofovir, 200 mM sodium phosphate, pH=8.0) was dispensed into a set of Afton sterilized, Ready-To-Fill® vials. The vials were stoppered with West NovaPure® stoppers and crimped with Afton Ready-To-Fill® sterilized seals, and stored for 6 hours at ambient conditions in upright and inverted orientations. Samples of the filling solution were collected before filling and after 6 hours of storage under the respective condition. The collected samples were assessed for their appearance, pH, and c(BCV). […] No additional impurity was introduced following contact.
The vials used for testing were clear, 20 mL, Class A borosilicate glass serum vials, and the stoppers were 20 mm Novapure® stoppers, with FluroTec® coating.

[3] = Sprague-Dawley CD, IV, repeat dose 1 mg/kg
[4] = Sprague-Dawley CD, IV, repeat dose 4 mg/kg
[5] = Sprague-Dawley CD, IV, repeat dose 15 mg/kg

CCCCCCCCCCCCCCCCOCCCOP(=O)(O)CO[C@H](CO)Cn1ccc(N)nc1=O [Brincidofovir]
Intestinal finding ([1]; IV administration): minimal single-cell effects | Preliminary Findings ([1]; IV, repeat dose 1 mg/kg): No GI findings | AUC [1, 3]: 0.41 µg·h/mL | Cmax [1, 3]: 0.298 µg/mL | AUC [1, 4]: 2.76 µg·h/mL | Cmax [1, 4]: 1.2 µg/mL | AUC [1, 5]: 9.89 µg·h/mL | Cmax [1, 5]: 4.5 µg/mL | Intestinal finding ([1]; oral administration): significant loss of epithelium in intestinal villi | mortality ([1]; oral, single dose 100 mg/kg): 38% mortality | mortality ([1]; oral, single dose 300 mg/kg): 100% mortality | AUC ([1]; oral, single dose 30 mg/kg): 5.56 µg·h/mL | Cmax ([1]; oral, single dose 30 mg/kg): 0.426 µg/mL | AUC ([1]; oral, single dose 100 mg/kg): 13.6 µg·h/mL | Cmax ([1]; oral, single dose 100 mg/kg): 1.09 µg/mL | AUC ([1]; oral, single dose 300 mg/kg): 20.5 µg·h/mL | Cmax ([1]; oral, single dose 300 mg/kg): 1.19 µg/mL | AUC ([1]; oral, single dose 1000 mg/kg): 26.4 µg·h/mL | Cmax ([1]; oral, single dose 1000 mg/kg): 1.38 µg/mL | Appearance ([2]; Inverted, 6 h): Clear, colorless | Measured pH ([2]; Inverted, 6 h): 8.0 | Observed c(BCV) ([2]; Inverted, 6 h): 9.4 mg/mL | Appearance ([2]; Pre filling): Clear, colorless | Measured pH ([2]; Pre filling): 8.0 | Observed c(BCV) ([2]; Pre filling): 9.5 mg/mL | Appearance ([2]; Upright, 6 h): Clear, colorless | Measured pH ([2]; Upright, 6 h): 8.0 | Observed c(BCV) ([2]; Upright, 6 h): 9.5 mg/mL
